# Patent US6413937B1, “Combinations for use in increasing the potency of a substrate for multidrug resistance related protein” (Dublin City University and Enterprise Ireland, priority 1996, dated 2002)
# Test system: DLKP-A cell line
# Experiment: miniaturised in vitro colorimetric cell survival assay, P-170 overexpressing DLKP-A
# Assay type: cell-based, human
# Method: All the results presented in this Example for the DLKP, A549 and OAW42-SR cell lines were derived using the same miniaturised in vitro calorimetric assay system. On Day 1 of the assay 1000 cells/well/100 μl were plated into 96-well plates. Cells were allowed to attach overnight and cell viability was visually assessed. On Day 2 the two drugs (i.e. NSAID plus chemotherapeutic drug) to be analysed were added onto the cells. The individual drugs were added separately in 50 μl quantities (4× stocks, to take into account the dilution effect of having 200 μl final volume in each well). The drugs were left on the cells for five further days (Day 7) and cell number was determined using the acid phosphatase end-point assay which uses p-nitrophenol phosphate as substrate (Martin, A. and Clynes, M. (1991) In Vitro Dev. Biol., 27A, 183-184). On Day 7 the culture medium was removed from the cells and they were washed once with phosphate buffered saline (PBS). After washing, 100 μl of freshly prepared substrate-containing buffer (0.1% Triton X-100 in 0.1M sodium acetate, pH 5.5) was added to each well and the plates were left in an incubator at 37° C. for 2 h. After the incubation period 50 μl of 1N NaOH was added to each well to develop the colour. The plates were then read at 405 nm (reference 620 nm) on an ELISA plate-reader.
# In the results given below the % cell survival in the drug-free control is 100%. All results are the cell survival means ±S.D. from a minimum of three experiments.
# v) is an example of a positive NSAID plus a positive drug on a P-170 overexpressing cell line: DLKP-A;
smiles,measurement,setting,value
"CC1=C(CC(=O)O)c2cc(F)ccc2/C1=C\c1ccc([S+](C)[O-])cc1 (stereo not drawn) [Sulindac, sulindac]",% cell survival,"v) Sulindac 1.5 μg/ml, alone or + Vincristine 1.0 μg/ml",108.9 ± 8.0%
same,% cell survival,"v) Sulindac 3 μg/ml, alone or + Vincristine 1.0 μg/ml",86.30 ± 13.7%
same,% cell survival,v) Sulindac alone (concentration not given) or Sulindac 6 μg/ml + Vincristine 1.0 μg/ml,105.7 ± 5.2%
